# Data published in ChEMBL document CHEMBL1130676, “Aryl ketones as novel replacements for the C-terminal amide bond of succinyl hydroxamate MMP inhibitors” (Bioorg Med Chem Lett, 1998).
# pIC50: −log10 of the molar value.
# Target: T1, Matrilysin (Homo sapiens, UniProt P09237)
# T1 sequence (P09237 whole entry): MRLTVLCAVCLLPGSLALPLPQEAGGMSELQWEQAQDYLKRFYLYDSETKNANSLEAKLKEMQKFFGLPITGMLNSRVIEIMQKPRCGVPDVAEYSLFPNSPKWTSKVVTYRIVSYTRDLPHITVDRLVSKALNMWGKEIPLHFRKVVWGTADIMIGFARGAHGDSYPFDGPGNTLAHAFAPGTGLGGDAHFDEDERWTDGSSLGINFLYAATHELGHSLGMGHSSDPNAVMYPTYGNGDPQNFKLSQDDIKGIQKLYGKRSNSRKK
# Experiment: In vitro inhibitory activity against human recombinant matrix metalloprotease 7
# Details: not given
row,SMILES,pIC50
1,CNC(=O)[C@@H]1Cc2ccc(cc2)OCCCCC[C@H](C(=O)NO)[C@@H](CC(C)C)C(=O)N1,8.21
2,"CC(C)CC(C(=O)N[C@@H](Cc1ccccc1)C(=O)c1c[nH]c2ccccc12)C(O)C(=O)NO (single isomer, unassigned)",8.96
3,CC(C)C[C@H]1C(=O)N[C@H](C(=O)c2ccc[nH]2)Cc2ccc(cc2)OCCCC[C@@H]1C(=O)NO,8.38
4,CC(C)C[C@H](CC(=O)NO)C(=O)N[C@@H](Cc1ccccc1)C(=O)c1c[nH]c2ccccc12,8.37
5,"C=CCC(C(=O)NO)C(CC(C)C)C(=O)N[C@@H](Cc1ccccc1)C(=O)c1cccs1 (single isomer, unassigned)",7.89
6,"C=CCC(C(=O)NO)C(CC(C)C)C(=O)N[C@@H](Cc1ccccc1)C(=O)NC (single isomer, unassigned)",7.96

# The remaining lines, values ahead:
row,pIC50,SMILES
1,8.62,CNC(=O)[C@H](Cc1ccccc1)NC(=O)[C@H](CC(C)C)[C@H](CSc1cccs1)C(=O)NO [BATIMASTAT]
2,7.35,"C=CCC(C(=O)NO)C(CC(C)C)C(=O)N[C@@H](Cc1ccccc1)C(C)=O (single isomer, unassigned)"
3,7.17,"C=CCC(C(=O)NO)C(CC(C)C)C(=O)N[C@@H](Cc1ccccc1)C(=O)c1nc2ccccc2[nH]1 (single isomer, unassigned)"
4,8.44,"C=CCC(C(=O)NO)C(CC(C)C)C(=O)N[C@@H](Cc1ccccc1)C(=O)c1ccccc1 (single isomer, unassigned)"
5,7.41,"C=CCC(C(=O)NO)C(CC(C)C)C(=O)N[C@@H](Cc1ccccc1)C(=O)CC (single isomer, unassigned)"

# Target: 72 kDa type IV collagenase (Homo sapiens, UniProt P08253)
# Sequence (P08253 whole entry): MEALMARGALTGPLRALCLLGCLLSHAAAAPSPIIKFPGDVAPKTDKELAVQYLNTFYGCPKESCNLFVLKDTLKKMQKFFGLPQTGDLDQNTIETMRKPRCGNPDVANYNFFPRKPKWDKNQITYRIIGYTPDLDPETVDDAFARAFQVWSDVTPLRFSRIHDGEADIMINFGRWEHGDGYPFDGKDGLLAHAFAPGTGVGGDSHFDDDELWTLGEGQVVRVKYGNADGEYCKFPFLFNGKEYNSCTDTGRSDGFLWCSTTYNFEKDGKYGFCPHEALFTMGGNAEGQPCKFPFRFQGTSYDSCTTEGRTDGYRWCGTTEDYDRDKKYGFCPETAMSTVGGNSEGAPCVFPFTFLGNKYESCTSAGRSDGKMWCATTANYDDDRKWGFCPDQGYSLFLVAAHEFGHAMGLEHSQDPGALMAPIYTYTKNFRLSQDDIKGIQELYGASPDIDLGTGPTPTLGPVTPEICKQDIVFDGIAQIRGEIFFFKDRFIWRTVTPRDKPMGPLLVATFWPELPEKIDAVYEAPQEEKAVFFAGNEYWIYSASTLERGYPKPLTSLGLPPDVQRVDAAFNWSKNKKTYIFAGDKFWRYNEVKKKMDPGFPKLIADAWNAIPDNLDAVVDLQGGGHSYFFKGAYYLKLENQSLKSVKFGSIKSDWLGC
# Experiment: In vitro inhibitory activity against matrix metalloprotease 2 isolated from human HT1080 fibrosarcoma cells induced with TNF
# Details: not given
row,SMILES,pIC50
1,"CC(C)CC(C(=O)N[C@@H](Cc1ccccc1)C(=O)c1c[nH]c2ccccc12)C(O)C(=O)NO (single isomer, unassigned)",9.22
2,CC(C)C[C@H]1C(=O)N[C@H](C(=O)c2ccc[nH]2)Cc2ccc(cc2)OCCCC[C@@H]1C(=O)NO,8.14
3,CC(C)C[C@H](CC(=O)NO)C(=O)N[C@@H](Cc1ccccc1)C(=O)c1c[nH]c2ccccc12,9.00
4,"C=CCC(C(=O)NO)C(CC(C)C)C(=O)N[C@@H](Cc1ccccc1)C(=O)c1cccs1 (single isomer, unassigned)",8.19

# More lines, now with the values ahead:
row,pIC50,SMILES
1,8.25,CNC(=O)[C@@H]1Cc2ccc(cc2)OCCCC[C@H](C(=O)NO)[C@@H](CC(C)C)C(=O)N1
2,7.66,"C=CCC(C(=O)NO)C(CC(C)C)C(=O)N[C@@H](Cc1ccccc1)C(C)=O (single isomer, unassigned)"
3,6.96,"C=CCC(C(=O)NO)C(CC(C)C)C(=O)N[C@@H](Cc1ccccc1)C(=O)c1nc2ccccc2[nH]1 (single isomer, unassigned)"
4,8.47,"C=CCC(C(=O)NO)C(CC(C)C)C(=O)N[C@@H](Cc1ccccc1)C(=O)c1ccccc1 (single isomer, unassigned)"
5,7.48,"C=CCC(C(=O)NO)C(CC(C)C)C(=O)N[C@@H](Cc1ccccc1)C(=O)CC (single isomer, unassigned)"

# Tested on: not listed separately
# Experiment: Bioavailability in rat after po administration of 30 mg/kg dose
# Format: ADME, organism-based
# Details: in vivo
row,bioavailability [%],SMILES
1,7,"C=CCC(C(=O)NO)C(CC(C)C)C(=O)N[C@@H](Cc1ccccc1)C(=O)c1c[nH]c2ccccc12 (single isomer, unassigned)"
2,0,"C=CCC(C(=O)NO)C(CC(C)C)C(=O)N[C@@H](Cc1ccccc1)C(=O)NC (single isomer, unassigned)"

# Tested on: not listed separately
# Experiment: Half life was measured in rat at dose of 30 mg/kg by po administration
# Format: ADME, organism-based
# Parameters: dose 30 mg/kg, route oral
# Details: in vivo
row,half-life [h],SMILES
1,1.45,"C=CCC(C(=O)NO)C(CC(C)C)C(=O)N[C@@H](Cc1ccccc1)C(=O)c1c[nH]c2ccccc12 (single isomer, unassigned)"

# Tested on: not listed separately
# Experiment: Oral bioavailability in monkey (dose 10 mg/kg)
# Format: ADME, organism-based
# Details: primates, in vivo
row,bioavailability [%],SMILES
1,15,"CNC(=O)[C@@H](NC(=O)C(CC(C)C)C(O)C(=O)NO)C(C)(C)C (single isomer, unassigned)"

# Target: Stromelysin-1 (Homo sapiens, UniProt P08254)
# Sequence (P08254 whole entry): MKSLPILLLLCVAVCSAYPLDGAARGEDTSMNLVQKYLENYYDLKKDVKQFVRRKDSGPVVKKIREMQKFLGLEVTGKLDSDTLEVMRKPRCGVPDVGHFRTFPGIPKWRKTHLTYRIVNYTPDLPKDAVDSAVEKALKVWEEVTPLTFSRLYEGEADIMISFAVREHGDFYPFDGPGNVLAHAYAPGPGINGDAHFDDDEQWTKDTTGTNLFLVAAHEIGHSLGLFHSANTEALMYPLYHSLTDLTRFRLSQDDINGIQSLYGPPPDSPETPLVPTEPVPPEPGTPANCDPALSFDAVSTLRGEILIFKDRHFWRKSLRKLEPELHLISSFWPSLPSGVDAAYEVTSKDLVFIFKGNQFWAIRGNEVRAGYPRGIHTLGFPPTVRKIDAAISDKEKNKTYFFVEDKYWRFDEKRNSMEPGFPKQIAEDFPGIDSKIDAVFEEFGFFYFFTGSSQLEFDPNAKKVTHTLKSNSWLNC
# Experiment: In vitro inhibitory activity against human recombinant matrix metalloprotease 3
# Details: not given
row,SMILES,pIC50
1,CNC(=O)[C@@H]1Cc2ccc(cc2)OCCCCC[C@H](C(=O)NO)[C@@H](CC(C)C)C(=O)N1,8.59
2,CC(C)C[C@H]1C(=O)N[C@H](C(=O)c2ccc[nH]2)Cc2ccc(cc2)OCCCC[C@@H]1C(=O)NO,8.14
3,"C=CCC(C(=O)NO)C(CC(C)C)C(=O)N[C@@H](Cc1ccccc1)C(=O)c1cccs1 (single isomer, unassigned)",8.49

# The next lines start with the values.
row,pIC50,SMILES
1,8.40,CNC(=O)[C@@H]1Cc2ccc(cc2)OCCCC[C@H](C(=O)NO)[C@@H](CC(C)C)C(=O)N1
2,7.27,"C=CCC(C(=O)NO)C(CC(C)C)C(=O)N[C@@H](Cc1ccccc1)C(=O)c1nc2ccccc2[nH]1 (single isomer, unassigned)"
3,7.09,"C=CCC(C(=O)NO)C(CC(C)C)C(=O)N[C@@H](Cc1ccccc1)C(=O)CC (single isomer, unassigned)"

# Tested on: not listed separately
# Experiment: Half life was measured in rat at dose of 30 mg/kg by iv administration
# Format: ADME, organism-based
# Parameters: dose 30 mg/kg, route intravenous
# Details: in vivo
row,half-life [h],SMILES
1,0.35,"C=CCC(C(=O)NO)C(CC(C)C)C(=O)N[C@@H](Cc1ccccc1)C(=O)NC (single isomer, unassigned)"

# Tested on: not listed separately
# Experiment: Bioavailability in monkey after po administration of 10 mg/kg dose
# Format: ADME, organism-based
# Details: primates, in vivo
row,bioavailability [%],SMILES
1,12,"C=CCC(C(=O)NO)C(CC(C)C)C(=O)N[C@@H](Cc1ccccc1)C(=O)c1c[nH]c2ccccc12 (single isomer, unassigned)"

# Tested on: not listed separately
# Experiment: Half life was measured in monkey at dose of 10 mg/kg by po administration
# Format: ADME, organism-based
# Parameters: dose 10 mg/kg, route oral
# Details: primates, in vivo
row,half-life [h],SMILES
1,20,"C=CCC(C(=O)NO)C(CC(C)C)C(=O)N[C@@H](Cc1ccccc1)C(=O)c1c[nH]c2ccccc12 (single isomer, unassigned)"
2,27,"CNC(=O)[C@@H](NC(=O)C(CC(C)C)C(O)C(=O)NO)C(C)(C)C (single isomer, unassigned)"

# Target: T2, Interstitial collagenase (Homo sapiens, UniProt P03956)
# T2 sequence (P03956 whole entry): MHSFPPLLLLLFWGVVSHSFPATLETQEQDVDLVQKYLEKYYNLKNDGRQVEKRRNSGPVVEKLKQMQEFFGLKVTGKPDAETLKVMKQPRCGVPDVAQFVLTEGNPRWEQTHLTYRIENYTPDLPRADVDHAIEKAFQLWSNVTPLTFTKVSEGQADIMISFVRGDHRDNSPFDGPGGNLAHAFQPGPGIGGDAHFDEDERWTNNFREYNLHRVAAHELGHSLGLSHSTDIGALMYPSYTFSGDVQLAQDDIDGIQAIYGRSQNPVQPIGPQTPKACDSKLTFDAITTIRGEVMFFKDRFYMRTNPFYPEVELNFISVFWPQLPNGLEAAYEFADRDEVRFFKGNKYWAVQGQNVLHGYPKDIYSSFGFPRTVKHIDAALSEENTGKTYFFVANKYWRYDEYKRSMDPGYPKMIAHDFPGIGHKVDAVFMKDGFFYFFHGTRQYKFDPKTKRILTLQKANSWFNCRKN
# Experiment: In vitro inhibitory activity against matrix metalloprotease 1 isolated from the culture medium of human skin fibroblasts induced with PMA
# Details: not given
row,SMILES,pIC50
1,"CC(C)CC(C(=O)N[C@@H](Cc1ccccc1)C(=O)c1c[nH]c2ccccc12)C(O)C(=O)NO (single isomer, unassigned)",8.30
2,CC(C)C[C@H]1C(=O)N[C@H](C(=O)c2ccc[nH]2)Cc2ccc(cc2)OCCCC[C@@H]1C(=O)NO,8.72
3,CC(C)C[C@H](CC(=O)NO)C(=O)N[C@@H](Cc1ccccc1)C(=O)c1c[nH]c2ccccc12,8.29

# Results, then the compound that gave them:
row,pIC50,SMILES
1,6.74,"C=CCC(C(=O)NO)C(CC(C)C)C(=O)N[C@@H](Cc1ccccc1)C(=O)c1nc2ccccc2[nH]1 (single isomer, unassigned)"
2,8.00,"C=CCC(C(=O)NO)C(CC(C)C)C(=O)N[C@@H](Cc1ccccc1)C(=O)c1ccccc1 (single isomer, unassigned)"
3,7.40,"C=CCC(C(=O)NO)C(CC(C)C)C(=O)N[C@@H](Cc1ccccc1)C(=O)CC (single isomer, unassigned)"
